Molecules are shown by their SMILES.

The experiment concerns the target human P2X3 receptor (Homo sapiens (Human), UniProt P56373). As to the kind of experiment: Evaluation of human P2X3 receptor inhibitory activity (Test Example 1). In kind it is cell-based. The settings on record: C6BU-1 cell transfected with human P2X3 receptor gene, FLIPR 384. The gist of the method: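 FLIPR calcium read-out: signal taken as peak fluorescence after ATP addition divided by starting fluorescence, and IC50 calculated from it. Compound added 5 min before 150 nM ATP solution (pre-dispense stock) to Fluo-3-AM-loaded C6BU-1 cells stably transfected with human P2X3; HEPES buffer pH 7.5 with probenecid.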

Chain of human P2X3 receptor (P56373 whole entry): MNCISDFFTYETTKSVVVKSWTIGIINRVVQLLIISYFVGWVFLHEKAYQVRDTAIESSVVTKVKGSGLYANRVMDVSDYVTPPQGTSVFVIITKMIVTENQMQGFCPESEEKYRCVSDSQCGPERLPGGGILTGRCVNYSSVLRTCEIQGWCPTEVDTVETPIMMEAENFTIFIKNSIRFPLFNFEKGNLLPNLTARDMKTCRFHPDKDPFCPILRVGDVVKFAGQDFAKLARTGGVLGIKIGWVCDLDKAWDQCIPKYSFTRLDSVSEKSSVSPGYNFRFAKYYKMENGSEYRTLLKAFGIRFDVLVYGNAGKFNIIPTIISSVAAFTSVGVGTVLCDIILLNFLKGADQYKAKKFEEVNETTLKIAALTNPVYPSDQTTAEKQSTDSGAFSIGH

As for `Cc1cc(/N=c2\[nH]c(=O)n(CC(C)(C)C(=O)O)c(=O)n2Cc2ccc(Cl)cc2)ccc1Oc1cncc(F)c1` [Compound R-118], the IC50 was 5 nM.

The compound `COC(=O)C(C)(C)Cn1c(=O)[nH]/c(=N\c2ccc(Oc3ncccc3F)cc2)n(Cc2ccc(Cl)cc2)c1=O` [Compound I-007] came in with an IC50 of 9 nM.

`COC(=O)C(C)(C)Cn1c(=O)[nH]/c(=N\c2ccc(Oc3cnc(Cl)cn3)cc2)n(Cc2ccc(Cl)cc2)c1=O` [Compound R-025] yielded a 50% inhibitory concentration (IC50) of 5 nM.

Compound `Cc1ccc(Cn2c(=O)n([C@H]3C[C@@H](C(=O)O)C3)c(=O)[nH]/c2=N\c2ccc(Oc3ccccn3)cc2)cc1` [Compound I-185] displayed an IC50 of 9 nM.

The compound `COC(=O)[C@@H](C)Cn1c(=O)[nH]/c(=N\c2ccc(Oc3cc(F)ccn3)cc2)n(Cc2ccc(Cl)cc2)c1=O` [Compound I-068] had an IC50 of 5 nM.

Regarding `COC(=O)C(C)(C)Cn1c(=O)[nH]/c(=N\c2ccc(Oc3ccc(C)nn3)c(F)c2)n(Cc2ccc(Cl)cc2)c1=O` [Compound R-175], the IC50 stood at 19 nM.

As to `Cc1cc(/N=c2\[nH]c(=O)n(CC(C)(C)C(=O)O)c(=O)n2Cc2ccc(Cl)cc2)ccc1N1CCCCC1` [Compound R-143], 97 nM corresponded to half-maximal inhibition (IC50). Against the preceding compound, the IC50 is about 5.1-fold higher.

`CNC(=O)CCn1c(=O)[nH]/c(=N\c2ccc(Oc3ccccn3)cc2)n(Cc2ccc(Cl)cc2)c1=O` [Compound R-230]: inhibition was half-maximal at 5 nM (IC50). This IC50 lies about 19-fold lower than the previous one.

Consider `C[C@@H](Cn1c(=O)[nH]/c(=N\c2ccc(Oc3ccc(F)cn3)cc2)n(Cc2ccc(C(F)F)cc2)c1=O)C(=O)O` [Compound I-167], for which the IC50 was 19 nM.

`CCc1[nH]c2ccc(/N=c3\[nH]c(=O)n(CC(C)(C)C(=O)O)c(=O)n3Cc3ccc(Cl)cc3)cc2c1C` [Compound R-075] displayed an IC50 of 13 nM.

The compound `C[C@@H](Cn1c(=O)[nH]/c(=N\c2ccc(Oc3ccc(F)cn3)cc2)n(CC2CC3(CCC3)C2)c1=O)C(=O)O` [Compound I-264] showed an IC50 of 5 nM.

Compound `COC(=O)C(C)(C)Cn1c(=O)[nH]/c(=N\c2ccc(Oc3ccc(C(F)(F)F)nn3)cc2)n(Cc2ccc(Cl)cc2)c1=O` [Compound R-029] registered an IC50 of 7 nM.

For `COc1ccnc(Oc2ccc(/N=c3\[nH]c(=O)n(C[C@H](C)C(=O)O)c(=O)n3Cc3ccc(Cl)cc3)cc2)c1` [Compound I-069], the IC50 is 7 nM.

In turn, `O=C(O)CCn1c(=O)[nH]/c(=N\c2ccc(Oc3cccc(F)n3)cc2)n(Cc2ccc(CF)cc2)c1=O` [Compound R-275] registered an IC50 of 23 nM.

With `COC(=O)[C@H](C)[C@H](C)n1c(=O)[nH]/c(=N\c2ccc(Oc3ccccn3)cc2)n(Cc2ccc(Cl)cc2)c1=O` [Compound I-144], the IC50 came out at 9 nM.

Compound `COC(=O)[C@@H](C)Cn1c(=O)[nH]/c(=N\c2ccc(Oc3ccc(C)cn3)cc2)n(Cc2ccc(Cl)cc2)c1=O` [Compound I-051] displayed an IC50 of 6 nM.

Compound `COC(=O)C(C)(C)Cn1c(=O)[nH]/c(=N\c2ccc(Oc3cccc(Cl)n3)cc2)n(Cc2ccc(C)cc2)c1=O` [Compound I-116] returned an IC50 of 7 nM.

In turn, `COC(=O)CCn1c(=O)[nH]/c(=N\c2ccc(Oc3ccccn3)cc2)n(Cc2ccc(Cl)cc2)c1=O` [Compound R-225] returned an IC50 of 4 nM.

In turn, `O=c1[nH]/c(=N\c2ccc(Oc3ncccc3F)cc2)n(Cc2ccc(Cl)cc2)c(=O)n1[C@H]1C[C@@H](C(=O)O)C1` [Compound I-064] showed a half-maximal inhibitory concentration (IC50) of 10 nM.

Regarding `Cc1ccc(Cn2c(=O)n(CCCC(=O)O)c(=O)[nH]/c2=N\c2ccc(Oc3ccc(F)cn3)cc2)cc1` [Compound R-278], the IC50 is 15 nM.

On to `COCc1cccc(Oc2ccc(/N=c3\[nH]c(=O)n(C[C@H](C)C(=O)OC)c(=O)n3Cc3ccc(Cl)cc3)cc2)n1` [Compound I-249], for which the midpoint of inhibition, the IC50, lay at 36 nM.

The compound `Cc1ccc(Cn2c(=O)n(C[C@H](C)C(=O)O)c(=O)[nH]/c2=N\c2ccc(Oc3ccc(CF)cn3)cc2)cc1` [Compound I-242] showed an IC50 of 8 nM. Against the preceding compound, the IC50 is about 4.5-fold lower.

Compound `COC(=O)[C@@H](C)Cn1c(=O)[nH]/c(=N\c2ccc(Oc3cccnn3)c(F)c2)n(Cc2ccc(Cl)cc2)c1=O` [Compound R-033] returned an IC50 of 6 nM.

`COC(=O)[C@H](C)[C@H](C)n1c(=O)[nH]/c(=N\c2ccc(Oc3cnccn3)c(C)c2)n(Cc2ccc(Cl)cc2)c1=O` [Compound R-158] yielded an IC50 of 12 nM.

For `C[C@@H](Cn1c(=O)[nH]/c(=N\c2ccc(Oc3ccccn3)cc2)n(CC2CCC3(CC2)CC3)c1=O)C(=O)O` [Compound I-202], the IC50 came out at 8 nM.

The compound `C[C@@H](Cn1c(=O)[nH]/c(=N\c2ccc(O[C@H](C)C(F)(F)F)c(F)c2)n(Cc2ccc(Cl)cc2)c1=O)C(=O)O` [Compound R-093] had an IC50 of 13 nM.

As for `COC(=O)C(C)(C)Cn1c(=O)[nH]/c(=N\c2ccc(Oc3ncccc3C(F)(F)F)cc2)n(Cc2ccc(Cl)cc2)c1=O` [Compound I-031], the midpoint of inhibition, the IC50, lay at 199 nM.

Turning to `COC(=O)CCn1c(=O)[nH]/c(=N\c2ccc(Oc3ncccc3F)cc2)n(Cc2ccc(CF)cc2)c1=O` [Compound R-288], the IC50 came out at 12 nM.

As to `CC(C)(Cn1c(=O)[nH]/c(=N\c2ccc(Oc3cncc(Cl)c3)cc2)n(Cc2ccc(Cl)cc2)c1=O)C(=O)O` [Compound R-082], the half-maximal inhibitory concentration (IC50) came out at 7 nM.

For the compound `COC(=O)C(C)(C)Cn1c(=O)[nH]/c(=N\c2ccc(Oc3ccc(F)cn3)cc2)n(Cc2ccc(Cl)cc2)c1=O` [Compound I-003], half-maximal inhibition (IC50) was put at 7 nM.

`COC(=O)[C@@H](C)Cn1c(=O)[nH]/c(=N\c2ccc(Oc3cnccn3)c(F)c2)n(Cc2ccc(Cl)cc2)c1=O` [Compound R-048] displayed an IC50 of 6 nM.

As to `Cc1cc(/N=c2\[nH]c(=O)n(C[C@H](C)C(=O)O)c(=O)n2Cc2ccc(Cl)s2)ccc1Oc1ncccc1F` [Compound I-276], the IC50 worked out at 19 nM.

`CC(C)(Cn1c(=O)[nH]/c(=N\c2ccc(Oc3cccc(Cl)n3)cc2)n(Cc2ccc(Cl)cc2)c1=O)C(=O)O` [Compound I-015] had an IC50 of 9 nM.

Consider `C[C@@H](Cn1c(=O)[nH]/c(=N\c2ccc(O[C@H](C)C(F)(F)F)c(O[C@H](C)C(F)(F)F)c2)n(Cc2ccc(Cl)cc2)c1=O)C(=O)O` [Compound R-094], for which the IC50 came out at 29 nM. This IC50 lies about 3.2-fold higher than the previous one.

In turn, `COC(=O)[C@@H](C)Cn1c(=O)[nH]/c(=N\c2ccc(Oc3ccc(Cl)cn3)cc2)n(Cc2ccc(C)cc2)c1=O` [Compound I-097] gave an IC50 of 5 nM.

In turn, `Cc1cc(/N=c2\[nH]c(=O)n([C@@H](C)[C@@H](C)C(=O)O)c(=O)n2Cc2ccc(Cl)cc2)ccc1Oc1cnccn1` [Compound R-161] returned an IC50 of 10 nM.

`CCc1ccc(Oc2ccc(/N=c3\[nH]c(=O)n(C[C@H](C)C(=O)O)c(=O)n3Cc3ccc(Cl)cc3)cc2)nc1` [Compound I-258] yielded an IC50 of 4 nM.

`COC(=O)[C@@H](C)Cn1c(=O)[nH]/c(=N\c2ccc(Oc3cnc(C(F)(F)F)cn3)cc2)n(Cc2ccc(Cl)cc2)c1=O` [Compound R-035] displayed a half-inhibitory concentration (IC50) of 8 nM.

The compound `COC(=O)C(C)(C)Cn1c(=O)[nH]/c(=N\c2ccc(Oc3cc(Cl)ncn3)cc2)n(Cc2ccc(Cl)cc2)c1=O` [Compound R-047] displayed an IC50 of 9 nM. This IC50 and that of the compound before are within 1.5-fold of each other.

In the case of `Cc1ccnc(Oc2ccc(/N=c3\[nH]c(=O)n(C[C@H](C)C(=O)O)c(=O)n3Cc3ccc(Cl)cc3)cc2)c1` [Compound I-080], half-maximal inhibition (IC50) was put at 10 nM. The IC50 values of the last two compounds are within 1.5-fold of each other.

`CCOC(=O)[C@H]1C[C@H](n2c(=O)[nH]/c(=N\c3ccc(Oc4ccccn4)cc3)n(Cc3ccc(C)cc3)c2=O)C1` [Compound I-180] registered an IC50 of 5 nM.

`COC(=O)C(C)(C)Cn1c(=O)[nH]/c(=N\c2ccc(Oc3ccccn3)c(F)c2)n(Cc2ccc(Cl)cc2)c1=O` [Compound I-227] showed an IC50 of 31 nM.

Turning to `COC(=O)[C@@H](C)Cn1c(=O)[nH]/c(=N\c2ccc(Oc3cnc(Cl)cn3)cc2)n(Cc2ccc(Cl)cc2)c1=O` [Compound R-013], the IC50 amounted to 6 nM.

In turn, `COC(=O)c1cccc(-c2ccc(Oc3ccc(/N=c4\[nH]c(=O)[nH]c(=O)n4Cc4ccc(Cl)cc4)cc3)nc2)c1` [Compound R-002] displayed an IC50 of 363 nM.

In the case of `COC(=O)[C@H](C)[C@H](C)n1c(=O)[nH]/c(=N\c2ccc(Oc3cc(C#N)ccn3)cc2)n(Cc2ccc(Cl)cc2)c1=O` [Compound I-075], 21 nM corresponded to half-maximal inhibition (IC50).

Regarding `CCc1[nH]c2ccc(/N=c3\[nH]c(=O)n(CC(C)(C)C(=O)OC)c(=O)n3Cc3ccc(Cl)cc3)cc2c1C` [Compound R-069], the IC50 is 51 nM.

With `COC(=O)[C@H](C)[C@H](C)n1c(=O)[nH]/c(=N\c2ccc(Oc3ncc(C)s3)cc2)n(Cc2ccc(Cl)cc2)c1=O` [Compound R-182], 26 nM corresponded to half-maximal inhibition (IC50).

Consider `COC(=O)CCn1c(=O)[nH]/c(=N\c2ccc(Oc3cccc(F)n3)cc2)n(Cc2ccc(CF)cc2)c1=O` [Compound R-286], for which the concentration for half-maximal inhibition (IC50) worked out at 6 nM. This IC50 lies about 4.3-fold lower than the previous one.

Compound `C[C@@H](Cn1c(=O)[nH]/c(=N\c2ccc(Oc3ccnc(C#N)c3)cc2)n(Cc2ccc(Cl)cc2)c1=O)C(=O)O` [Compound R-123] displayed an IC50 of 5 nM.

On to `COC(=O)[C@@H](C)Cn1c(=O)[nH]/c(=N\c2ccc(Oc3ccccn3)cc2)n(Cc2ccc(CF)cc2)c1=O` [Compound I-206], for which 10 nM corresponded to half-maximal inhibition (IC50).

In the case of `C[C@@H](C(=O)O)[C@H](C)n1c(=O)[nH]/c(=N\c2ccc(Oc3cnc(Cl)cn3)cc2)n(Cc2ccc(Cl)cc2)c1=O` [Compound R-162], the IC50 worked out at 6 nM.

Compound `Cc1ccc(Cn2c(=O)n([C@@H](C)[C@@H](C)C(=O)O)c(=O)[nH]/c2=N\c2ccc(Oc3ccc(Cl)cn3)cc2)cc1` [Compound I-123] registered an IC50 of 5 nM. The IC50 values of the last two compounds are within 1.5-fold of each other.

As for `COC(=O)[C@@H](C)Cn1c(=O)[nH]/c(=N\c2ccc(Oc3ncc(C)s3)cc2)n(Cc2ccc(Cl)cc2)c1=O` [Compound R-132], the IC50 worked out at 10 nM.

In turn, `C[C@@H](Cn1c(=O)[nH]/c(=N\c2ccc(Oc3cccc(F)n3)cc2)n(Cc2ccc(CF)cc2)c1=O)C(=O)O` [Compound I-217] registered an IC50 of 11 nM. This IC50 and that of the compound before are within 1.5-fold of each other.

In turn, `CO[C@H](Cn1c(=O)[nH]/c(=N\c2ccc(Oc3ccccn3)cc2)n(Cc2ccc(Cl)cc2)c1=O)C(=O)O` [Compound I-200] registered an IC50 of 42 nM.

In the case of `Cc1ccc(Cn2c(=O)n(C[C@H](C)C(=O)O)c(=O)[nH]/c2=N\c2ccc(Oc3ncccc3F)cc2)cc1` [Compound I-056], inhibition was half-maximal at 7 nM (IC50). This IC50 lies about 6-fold lower than the previous one.

(Values after US10065941B2, “Aminotriazine derivative and pharmaceutical composition comprising the same” (Shionogi & Co., Ltd., priority 2013, dated 2018).)
